Data taken from the NIST ThermoML archive (doi:10.1021/acs.jced.8b00662).
± gives the expanded uncertainty stated by the source.

Assay: xn = mol fraction of the nth substance listed
Details: 100 kPa, Liquid; for viscosity: Falling or rolling sphere viscometry; for mass density: Vibrating tube method

CC(C)C1CCCCC1 [(1-methylethyl)cyclohexane] + c1ccc2c(c1)CCCC2
Details | mass density [kg/m3] | viscosity [mPa·s]
293.15 K, x2 = 0 | 802.14 ± 0.97 | 1.093 ± 0.023
293.15 K, x2 = 0.0995 | 816.67 ± 0.99 | 1.129 ± 0.024
293.15 K, x2 = 0.1995 | 831.75 ± 1 | 1.195 ± 0.026
293.15 K, x2 = 0.299 | 847.23 ± 1 | 1.258 ± 0.027
293.15 K, x2 = 0.4004 | 863.44 ± 1 | 1.334 ± 0.028
293.15 K, x2 = 0.5006 | 879.87 ± 1.1 | 1.436 ± 0.031
293.15 K, x2 = 0.5995 | 896.5 ± 1.1 | 1.543 ± 0.033
293.15 K, x2 = 0.7015 | 914.1 ± 1.1 | 1.671 ± 0.036
293.15 K, x2 = 0.7991 | 931.39 ± 1.1 | 1.823 ± 0.039
293.15 K, x2 = 0.9006 | 949.99 ± 1.1 | 2.008 ± 0.043
298.15 K, x2 = 0 | 798.24 ± 0.97 | 1.016 ± 0.022
298.15 K, x2 = 0.0995 | 812.77 ± 0.99 | 1.053 ± 0.023
298.15 K, x2 = 0.1995 | 827.85 ± 1 | 1.108 ± 0.024
298.15 K, x2 = 0.299 | 843.32 ± 1 | 1.165 ± 0.025
298.15 K, x2 = 0.4004 | 859.53 ± 1 | 1.233 ± 0.026
298.15 K, x2 = 0.5006 | 875.96 ± 1.1 | 1.324 ± 0.028
298.15 K, x2 = 0.5995 | 892.57 ± 1.1 | 1.416 ± 0.03
298.15 K, x2 = 0.7015 | 910.16 ± 1.1 | 1.531 ± 0.033
298.15 K, x2 = 0.7991 | 927.44 ± 1.1 | 1.662 ± 0.035
298.15 K, x2 = 0.9006 | 946.04 ± 1.1 | 1.824 ± 0.039
303.15 K, x2 = 0 | 794.34 ± 0.96 | 0.947 ± 0.02
303.15 K, x2 = 0.0995 | 808.86 ± 0.98 | 0.98 ± 0.021
303.15 K, x2 = 0.1995 | 823.93 ± 1 | 1.03 ± 0.022
303.15 K, x2 = 0.299 | 839.4 ± 1 | 1.08 ± 0.023
303.15 K, x2 = 0.4004 | 855.61 ± 1 | 1.143 ± 0.024
303.15 K, x2 = 0.5006 | 872.03 ± 1.1 | 1.225 ± 0.026
303.15 K, x2 = 0.5995 | 888.63 ± 1.1 | 1.305 ± 0.028
303.15 K, x2 = 0.7015 | 906.22 ± 1.1 | 1.407 ± 0.03
303.15 K, x2 = 0.7991 | 923.49 ± 1.1 | 1.521 ± 0.032
303.15 K, x2 = 0.9006 | 942.08 ± 1.1 | 1.667 ± 0.035
308.15 K, x2 = 0 | 790.43 ± 0.96 | 0.886 ± 0.019
308.15 K, x2 = 0.0995 | 804.95 ± 0.98 | 0.916 ± 0.02
308.15 K, x2 = 0.1995 | 820.02 ± 0.99 | 0.961 ± 0.021
308.15 K, x2 = 0.299 | 835.48 ± 1 | 1.007 ± 0.022
308.15 K, x2 = 0.4004 | 851.68 ± 1 | 1.064 ± 0.023
308.15 K, x2 = 0.5006 | 868.1 ± 1.1 | 1.137 ± 0.024
308.15 K, x2 = 0.5995 | 884.69 ± 1.1 | 1.208 ± 0.026
308.15 K, x2 = 0.7015 | 902.28 ± 1.1 | 1.3 ± 0.028
308.15 K, x2 = 0.7991 | 919.54 ± 1.1 | 1.404 ± 0.03
308.15 K, x2 = 0.9006 | 938.12 ± 1.1 | 1.532 ± 0.033
313.15 K, x2 = 0 | 786.51 ± 0.95 | 0.831 ± 0.018
313.15 K, x2 = 0.0995 | 801.03 ± 0.97 | 0.859 ± 0.018
313.15 K, x2 = 0.1995 | 816.1 ± 0.99 | 0.9 ± 0.019
313.15 K, x2 = 0.299 | 831.55 ± 1 | 0.942 ± 0.02
313.15 K, x2 = 0.4004 | 847.75 ± 1 | 0.994 ± 0.021
313.15 K, x2 = 0.5006 | 864.17 ± 1 | 1.06 ± 0.023
313.15 K, x2 = 0.5995 | 880.76 ± 1.1 | 1.124 ± 0.024
313.15 K, x2 = 0.7015 | 898.34 ± 1.1 | 1.207 ± 0.026
313.15 K, x2 = 0.7991 | 915.59 ± 1.1 | 1.3 ± 0.028
313.15 K, x2 = 0.9006 | 934.17 ± 1.1 | 1.413 ± 0.03
318.15 K, x2 = 0 | 782.59 ± 0.95 | 0.782 ± 0.017
318.15 K, x2 = 0.0995 | 797.11 ± 0.97 | 0.798 ± 0.017
318.15 K, x2 = 0.1995 | 812.17 ± 0.98 | 0.837 ± 0.018
318.15 K, x2 = 0.299 | 827.63 ± 1 | 0.876 ± 0.019
318.15 K, x2 = 0.4004 | 843.82 ± 1 | 0.925 ± 0.02
318.15 K, x2 = 0.5006 | 860.23 ± 1 | 0.986 ± 0.021
318.15 K, x2 = 0.5995 | 876.81 ± 1.1 | 1.045 ± 0.022
318.15 K, x2 = 0.7015 | 894.39 ± 1.1 | 1.121 ± 0.024
318.15 K, x2 = 0.7991 | 911.63 ± 1.1 | 1.206 ± 0.026
318.15 K, x2 = 0.9006 | 930.21 ± 1.1 | 1.309 ± 0.028
323.15 K, x2 = 0 | 778.66 ± 0.95 | 0.738 ± 0.016
323.15 K, x2 = 0.0995 | 793.18 ± 0.96 | 0.761 ± 0.016
323.15 K, x2 = 0.1995 | 808.24 ± 0.98 | 0.795 ± 0.017
323.15 K, x2 = 0.299 | 823.7 ± 1 | 0.831 ± 0.018
323.15 K, x2 = 0.4004 | 839.88 ± 1 | 0.875 ± 0.019
323.15 K, x2 = 0.5006 | 856.3 ± 1 | 0.93 ± 0.02
323.15 K, x2 = 0.5995 | 872.87 ± 1.1 | 0.982 ± 0.021
323.15 K, x2 = 0.7015 | 890.45 ± 1.1 | 1.05 ± 0.022
323.15 K, x2 = 0.7991 | 907.69 ± 1.1 | 1.123 ± 0.024
323.15 K, x2 = 0.9006 | 926.26 ± 1.1 | 1.219 ± 0.026
328.15 K, x2 = 0 | 774.72 ± 0.94 | 0.698 ± 0.015
328.15 K, x2 = 0.0995 | 789.24 ± 0.96 | 0.72 ± 0.015
328.15 K, x2 = 0.1995 | 804.3 ± 0.98 | 0.751 ± 0.016
328.15 K, x2 = 0.299 | 819.76 ± 0.99 | 0.784 ± 0.017
328.15 K, x2 = 0.4004 | 835.94 ± 1 | 0.825 ± 0.018
328.15 K, x2 = 0.5006 | 852.35 ± 1 | 0.875 ± 0.019
328.15 K, x2 = 0.5995 | 868.92 ± 1.1 | 0.922 ± 0.02
328.15 K, x2 = 0.7015 | 886.5 ± 1.1 | 0.985 ± 0.021
328.15 K, x2 = 0.7991 | 903.74 ± 1.1 | 1.051 ± 0.022
328.15 K, x2 = 0.9006 | 922.3 ± 1.1 | 1.137 ± 0.024
333.15 K, x2 = 0 | 770.77 ± 0.94 | 0.661 ± 0.014
333.15 K, x2 = 0.0995 | 785.29 ± 0.95 | 0.681 ± 0.015
333.15 K, x2 = 0.1995 | 800.35 ± 0.97 | 0.711 ± 0.015
333.15 K, x2 = 0.299 | 815.81 ± 0.99 | 0.741 ± 0.016
333.15 K, x2 = 0.4004 | 831.99 ± 1 | 0.779 ± 0.017
333.15 K, x2 = 0.5006 | 848.4 ± 1 | 0.825 ± 0.018
333.15 K, x2 = 0.5995 | 864.97 ± 1 | 0.869 ± 0.019
333.15 K, x2 = 0.7015 | 882.54 ± 1.1 | 0.926 ± 0.02
333.15 K, x2 = 0.7991 | 899.78 ± 1.1 | 0.986 ± 0.021
333.15 K, x2 = 0.9006 | 918.35 ± 1.1 | 1.065 ± 0.023
338.15 K, x2 = 0 | 766.81 ± 0.93 | 0.628 ± 0.013
338.15 K, x2 = 0.0995 | 781.34 ± 0.95 | 0.647 ± 0.014
338.15 K, x2 = 0.1995 | 796.4 ± 0.97 | 0.674 ± 0.014
338.15 K, x2 = 0.299 | 811.85 ± 0.98 | 0.703 ± 0.015
338.15 K, x2 = 0.4004 | 828.03 ± 1 | 0.737 ± 0.016
338.15 K, x2 = 0.5006 | 844.44 ± 1 | 0.78 ± 0.017
338.15 K, x2 = 0.5995 | 861.01 ± 1 | 0.82 ± 0.017
338.15 K, x2 = 0.7015 | 878.57 ± 1.1 | 0.873 ± 0.019
338.15 K, x2 = 0.7991 | 895.81 ± 1.1 | 0.928 ± 0.02
338.15 K, x2 = 0.9006 | 914.37 ± 1.1 | 0.999 ± 0.021
343.15 K, x2 = 0 | 762.84 ± 0.93 | 0.598 ± 0.013
343.15 K, x2 = 0.0995 | 777.38 ± 0.95 | 0.616 ± 0.013
343.15 K, x2 = 0.1995 | 792.44 ± 0.96 | 0.641 ± 0.014
343.15 K, x2 = 0.299 | 807.89 ± 0.98 | 0.668 ± 0.014
343.15 K, x2 = 0.4004 | 824.07 ± 1 | 0.7 ± 0.015
343.15 K, x2 = 0.5006 | 840.47 ± 1 | 0.74 ± 0.016
343.15 K, x2 = 0.5995 | 857.04 ± 1 | 0.776 ± 0.017
343.15 K, x2 = 0.7015 | 874.6 ± 1.1 | 0.825 ± 0.018
343.15 K, x2 = 0.7991 | 891.84 ± 1.1 | 0.875 ± 0.019
343.15 K, x2 = 0.9006 | 910.39 ± 1.1 | 0.942 ± 0.02
